From patent US9416383B2, “Method for enhancing catalytic activity of a lipase” (University of North Carolina at Chapel Hill, priority 2007, dated 2016)
Entries after “also recorded” stand apart in the source; their conditions may differ.

How the values were obtained:
[1] = molecular target: T1, human PLCβ3 (hPLCβ3) (Homo sapiens, UniProt Q01970); assay: PLCβ3 activity by cell free assay ([3H]-inositol phosphate formation from PIP2 in dodecylmaltoside mixed micelles); type: biochemical; details: for effect on activity of hPLCβ3 in DDM mixed micelles: FIG. 2; for effect on U73122-induced activation of hPLCβ3: FIGS. 3 and 6B
T1 construct: confirmed alkylation at up to eight cysteine residues on the full length protein; gift: laboratory of Dr. T. K. Harden, University of North Carolina
T1 sequence (Q01970 1-1234): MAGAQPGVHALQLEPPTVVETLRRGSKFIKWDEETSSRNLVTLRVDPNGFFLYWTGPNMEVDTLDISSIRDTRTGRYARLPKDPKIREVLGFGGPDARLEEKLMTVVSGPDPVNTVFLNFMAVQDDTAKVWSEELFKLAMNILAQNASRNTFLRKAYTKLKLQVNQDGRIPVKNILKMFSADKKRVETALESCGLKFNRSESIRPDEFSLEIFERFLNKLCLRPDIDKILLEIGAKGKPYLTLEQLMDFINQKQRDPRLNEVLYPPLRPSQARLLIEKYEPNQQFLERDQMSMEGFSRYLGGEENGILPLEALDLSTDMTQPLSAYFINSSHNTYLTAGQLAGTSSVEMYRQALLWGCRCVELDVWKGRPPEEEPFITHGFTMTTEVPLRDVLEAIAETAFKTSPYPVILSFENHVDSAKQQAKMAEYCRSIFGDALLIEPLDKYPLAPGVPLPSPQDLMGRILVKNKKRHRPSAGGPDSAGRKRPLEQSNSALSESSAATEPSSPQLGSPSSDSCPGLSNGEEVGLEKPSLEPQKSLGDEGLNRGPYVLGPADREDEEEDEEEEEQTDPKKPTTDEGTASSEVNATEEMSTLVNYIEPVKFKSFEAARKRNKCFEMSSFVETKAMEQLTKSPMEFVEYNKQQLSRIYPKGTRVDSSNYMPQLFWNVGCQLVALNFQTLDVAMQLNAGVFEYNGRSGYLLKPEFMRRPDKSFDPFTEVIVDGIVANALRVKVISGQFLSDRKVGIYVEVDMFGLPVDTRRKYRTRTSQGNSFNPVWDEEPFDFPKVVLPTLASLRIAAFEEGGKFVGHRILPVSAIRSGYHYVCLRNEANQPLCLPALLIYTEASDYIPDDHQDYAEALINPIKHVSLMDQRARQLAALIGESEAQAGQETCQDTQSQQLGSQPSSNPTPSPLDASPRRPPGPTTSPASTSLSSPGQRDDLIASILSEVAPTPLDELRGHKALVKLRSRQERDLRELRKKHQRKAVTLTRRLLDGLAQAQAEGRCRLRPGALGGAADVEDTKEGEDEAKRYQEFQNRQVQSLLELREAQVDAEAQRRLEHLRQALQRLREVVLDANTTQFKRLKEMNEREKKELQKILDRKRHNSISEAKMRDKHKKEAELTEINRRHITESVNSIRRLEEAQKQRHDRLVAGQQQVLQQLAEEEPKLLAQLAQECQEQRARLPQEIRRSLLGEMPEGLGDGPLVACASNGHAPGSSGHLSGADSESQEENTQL
Method: Purified human PLCβ3 protein was generously provided by the laboratory of Dr. T. K. Harden (Department of Pharmacology, University of North Carolina, Chapel Hill, N.C., United States of America). […] Briefly, hot and cold phosphatidylinositol-4,5-bisphosphate (PIP2; 5 nmol), as substrate, was reconstituted in a 1 mM dodecylmaltoside solution and mixed with assay buffer containing 40 mM Hepes (pH 7.4), 480 mM KCl, 40 mM NaCl, 8 mM EGTA, 4 mM […], and 7.6 mM CaCl2. Compounds at desired concentrations and purified PLCβ3 in 1% fatty acid-free BSA and 10 mM Hepes (pH 7.0), were subsequently added to the mixture. To initiate assays, samples were moved to a 37° C. water bath and incubated for 2-10 minutes such that less than fifteen percent total substrate was hydrolyzed. At designated times, reactions were stopped by addition of 750 μl CHCl3:MeOH:HCl (40:80:1), 100 μl water, 250 μl CHCl3, and 250 μl 0.1M HCl. Samples were vortexed and centrifuged at 3000 rpm for 10 minutes at 4° C. The amount of formed [^3H]-inositol phosphates was measured by liquid scintillation counting of 500 μl of the upper phase in a Packard Tri Carb 4000 Series […].
Data are expressed as mean±SD of three experiments performed in triplicate unless otherwise indicated. Statistical significance was evaluated using unpaired Students t tests. Data were modeled using Win-non Lin (Pharsight, Mountain View, Calif., United States of America) non-linear regression analysis for determination of EC50 (PLCβ3) and IC50 values.

[2] = molecular target: T2, hPLCβ3 (Homo sapiens, UniProt Q01970); assay: Mass spectrometry of intact hPLCβ3 and LC/MS/MS peptide sequencing (alkylation); details: FIG. 6A
T2 construct: confirmed alkylation at up to eight cysteine residues on the full length protein; gift: laboratory of Dr. T. K. Harden, University of North Carolina
T2 sequence (Q01970 1-1234): T1 sequence (Q01970 1-1234)
Method: The mass-to-charge data were transformed to the mass domain using BioConfirm software from Agilent. For peptide sequencing, solution phase and SDS gel bands of unmodified and modified PLCβ3 was incubated with trypsin overnight at 37° C. […] The tryptic peptides were subsequently analyzed by nano-LC/MS/MS using a Dionex UltiMate nano LC (Sunnyvale, Calif., United States of America) coupled to Sciex (Toronto, Ontario, Canada) Q-Star Pulsar i mass spectrometer. The results were processed using MASCOT (Matrix Sciences, Boston, Mass., United States of America) protein database that had the mass of U73122 modification created as a variable modification.

[3] = test system: PLC in MDCK cells; details: ATP-stimulated, concentration dependent; cited from earlier work
[4] = test system: PLC in Caco-2 cells; details: ATP-stimulated, concentration dependent; cited from earlier work
[5] = test system: MDCK cell monolayers; details: concentration-dependent; cited from earlier work
[6] = test system: Caco-2 cell monolayers; details: concentration-dependent; cited from earlier work

SMILES	effect on activity of hPLCβ3 in DDM mixed micelles ([1]; DDM mixed micelles)	effect on U73122-induced activation of hPLCβ3 ([1]; DDM mixed micelles)	inhibition of PLC activity in MDCK cells [3]	inhibition of PLC activity in Caco-2 cells [4]	further results
CCN1C(=O)C=CC1=O [NEM, N-ethylmaleimide]	do not; also recorded: inability to activate	inhibits			alkylation of hPLCβ3 [2]: alkylates hPLCβ3 at multiple amino acid residues
N[C@@H](CS)C(=O)O [cysteine]		inhibit			
COc1ccc2c(c1)CC[C@@H]1[C@@H]2CC[C@]2(C)[C@@H](NCCCCCCN3C(=O)C=CC3=O)CC[C@@H]12 [U73122]	increases the activity		inhibits	inhibits	EC50 [1]: 14 ± 5 µM; time dependence of hPLCβ3 activation ([1]; FIG. 4): time dependent; effect on tight junction permeability, MDCK monolayers [5]: enhances; effect on tight junction permeability, Caco-2 monolayers [6]: enhances
N[C@@H](CCC(=O)N[C@@H](CS)C(=O)NCC(=O)O)C(=O)O [glutathione]		inhibits			IC50 ([1]; DDM mixed micelles, mean±SD, read-out: IC50 for inhibition of U73122-induced activation of hPLCβ3): 38 ± 16 µM
COc1ccc2c(c1)CC[C@@H]1[C@@H]2CC[C@]2(C)[C@@H](NCCCCCCN3C(=O)CCC3=O)CC[C@@H]12 [U73343]	do not		does not	does not	
